{"source": "paper PMC7031696", "about": "(Cell chemical biology, 2019)", "tested_on": "3D7-MR4 trophozoite parasite-infected RBCs", "experiment": "Metabolomic profiling (hydrophilic metabolite changes, UHPLC-MS)", "type": "cell-based, Plasmodium falciparum", "data": [{"smiles": "CN(C)Cc1ccc(-c2cc3c(-c4ccc(CN(C)C)cc4)ccnc3[nH]2)cc1.O=C(O)C(F)(F)F", "note": "[MMV022224]", "values": [{"measurement": "peptide levels (hemoglobin catabolism signature)", "setting": "10 × IC50^72h, 2.5 hr, trophozoites", "value": "increased levels of peptides"}, {"measurement": "Log2(fold changes) 1_3-Bisphosphoglyceric acid", "setting": "metabolite 1_3-Bisphosphoglyceric acid, log2 fold change", "value": 0.0000}, {"measurement": "Log2(fold changes) 2-Hydroxy-2-methylbutanedioic acid", "setting": "metabolite 2-Hydroxy-2-methylbutanedioic acid, log2 fold change", "value": 0.1756}, {"measurement": "Log2(fold changes) 2-Isopropylmalic acid", "setting": "metabolite 2-Isopropylmalic acid, log2 fold change", "value": 0.0000}, {"measurement": "Log2(fold changes) 2-dehydro-D-gluconate", "setting": "metabolite 2-dehydro-D-gluconate, log2 fold change", "value": 0.3564}, {"measurement": "Log2(fold changes) 2-oxo-4-methylthiobutanoate", "setting": "metabolite 2-oxo-4-methylthiobutanoate, log2 fold change", "value": 0.0000}, {"measurement": "Log2(fold changes) 2_3-Diphosphoglyceric acid", "setting": "metabolite 2_3-Diphosphoglyceric acid, log2 fold change", "value": -0.1549}, {"measurement": "Log2(fold changes) 3-phosphoglycerate", "setting": "metabolite 3-phosphoglycerate, log2 fold change", "value": -0.0795}, {"measurement": "Log2(fold changes) 3-phosphoserine", "setting": "metabolite 3-phosphoserine, log2 fold change", "value": -0.1712}, {"measurement": "Log2(fold changes) 4-Pyridoxic acid", "setting": "metabolite 4-Pyridoxic acid, log2 fold change", "value": 0.0566}, {"measurement": "Log2(fold changes) 4-aminobutyrate", "setting": "metabolite 4-aminobutyrate, log2 fold change", "value": -0.2938}, {"measurement": "Log2(fold changes) 4-phosphopantetheine", "setting": "metabolite 4-phosphopantetheine, log2 fold change", "value": -0.5209}, {"measurement": "Log2(fold changes) 4-phosphopantothenate", "setting": "metabolite 4-phosphopantothenate, log2 fold change", "value": 0.0735}, {"measurement": "Log2(fold changes) 5-aminopentanoic acid", "setting": "metabolite 5-aminopentanoic acid, log2 fold change", "value": 0.0000}, {"measurement": "Log2(fold changes) 5-methyl-THF", "setting": "metabolite 5-methyl-THF, log2 fold change", "value": 0.0000}, {"measurement": "Log2(fold changes) 5-phosphoribosyl-1-pyrophosphate", "setting": "metabolite 5-phosphoribosyl-1-pyrophosphate, log2 fold change", "value": -0.7551}, {"measurement": "Log2(fold changes) 6-phospho-D-gluconate", "setting": "metabolite 6-phospho-D-gluconate, log2 fold change", "value": -0.0328}, {"measurement": "Log2(fold changes) ADP-D-glucose", "setting": "metabolite ADP-D-glucose, log2 fold change", "value": 0.0037}, {"measurement": "Log2(fold changes) Acetyl-glycine", "setting": "metabolite Acetyl-glycine, log2 fold change", "value": 0.0000}, {"measurement": "Log2(fold changes) Acetyllysine", "setting": "metabolite Acetyllysine, log2 fold change", "value": 0.0000}, {"measurement": "Log2(fold changes) Aminoadipic acid", "setting": "metabolite Aminoadipic acid, log2 fold change", "value": 0.0000}, {"measurement": "Log2(fold changes) CDP", "setting": "metabolite CDP, log2 fold change", "value": -0.4119}, {"measurement": "Log2(fold changes) CDP-choline", "setting": "metabolite CDP-choline, log2 fold change", "value": 0.2972}, {"measurement": "Log2(fold changes) CDP-ethanolamine", "setting": "metabolite CDP-ethanolamine, log2 fold change", "value": 0.0000}, {"measurement": "Log2(fold change) of CMP", "setting": "metabolite CMP", "value": 0.3976}, {"measurement": "Log2(fold change) of CTP", "setting": "metabolite CTP", "value": -0.2057}, {"measurement": "Log2(fold changes) Citraconic acid", "setting": "metabolite Citraconic acid, log2 fold change", "value": 0.0000}, {"measurement": "Log2(fold change) of D-glucarate", "setting": "metabolite D-glucarate", "value": 0.0159}, {"measurement": "Log2(fold change) of D-gluconate", "setting": "metabolite D-gluconate", "value": -0.4042}, {"measurement": "Log2(fold change) of D-glucosamine-1/6-phosphate", "setting": "metabolite D-glucosamine-1/6-phosphate", "value": 0.0000}, {"measurement": "Log2(fold change) of D-sedoheptulose-1/7-phosphate", "setting": "metabolite D-sedoheptulose-1/7-phosphate", "value": 0.3067}, {"measurement": "Log2(fold change) of DL-Pipecolic Acid", "setting": "metabolite DL-Pipecolic Acid", "value": 0.0000}, {"measurement": "Log2(fold change) of DLH", "setting": "metabolite DLH", "value": 0.8439}, {"measurement": "Log2(fold change) of DLS", "setting": "metabolite DLS", "value": 0.5887}, {"measurement": "Log2(fold change) of Decanoyl-CoA", "setting": "metabolite Decanoyl-CoA", "value": 0.0000}, {"measurement": "Log2(fold change) of EV", "setting": "metabolite EV", "value": 0.0000}, {"measurement": "Log2(fold change) of FAD", "setting": "metabolite FAD", "value": 0.8383}, {"measurement": "Log2(fold change) of FMN", "setting": "metabolite FMN", "value": 0.1361}, {"measurement": "Log2(fold change) of G3P/DHAP", "setting": "metabolite G3P/DHAP", "value": 0.0585}, {"measurement": "Log2(fold change) of GDP", "setting": "metabolite GDP", "value": -0.5545}, {"measurement": "Log2(fold change) GMP", "setting": "metabolite GMP", "value": -0.0052}, {"measurement": "Log2(fold change) GTP", "setting": "metabolite GTP", "value": -0.2843}, {"measurement": "Log2(fold change) HVDD", "setting": "metabolite HVDD", "value": 0.7226}, {"measurement": "Log2(fold change) Hexose", "setting": "metabolite Hexose", "value": 0.3496}, {"measurement": "Log2(fold change) Hydroxyisocaproic acid", "setting": "metabolite Hydroxyisocaproic acid", "value": 0.0000}, {"measurement": "Log2(fold change) IDP", "setting": "metabolite IDP", "value": 0.0000}, {"measurement": "Log2(fold change) IMP", "setting": "metabolite IMP", "value": 0.0372}, {"measurement": "Log2(fold change) Inositol", "setting": "metabolite Inositol", "value": 0.0000}, {"measurement": "Log2(fold change) Isopentyl-PP", "setting": "metabolite Isopentyl-PP", "value": 0.0000}, {"measurement": "Log2(fold change) L-arginino-succinate", "setting": "metabolite L-arginino-succinate", "value": -0.1932}, {"measurement": "Log2(fold change) LD", "setting": "metabolite LD", "value": 0.8668}, {"measurement": "Log2(fold change) Myristoyl/tetradecanoyl-CoA", "setting": "metabolite Myristoyl/tetradecanoyl-CoA", "value": 0.0000}, {"measurement": "Log2(fold change) N-Acetyl-L-alanine", "setting": "metabolite N-Acetyl-L-alanine", "value": -0.6716}, {"measurement": "Log2(fold change) N-acetyl-L-ornithine", "setting": "metabolite N-acetyl-L-ornithine", "value": 0.0000}, {"measurement": "Log2(fold change) N-acetyl-glucosamine-1/6-phosphate", "setting": "metabolite N-acetyl-glucosamine-1/6-phosphate", "value": -0.1039}, {"measurement": "Log2(fold change) N-acetyl-glutamate", "setting": "metabolite N-acetyl-glutamate", "value": -0.3449}, {"measurement": "Log2(fold change) N-acetyl-glutamine", "setting": "metabolite N-acetyl-glutamine", "value": -1.3853}, {"measurement": "Log2(fold change) N-carbamoyl-L-aspartate", "setting": "metabolite N-carbamoyl-L-aspartate", "value": -0.1955}, {"measurement": "Log2(fold change) NAD+", "setting": "metabolite NAD+", "value": -0.0358}, {"measurement": "Log2(fold change) NADH", "setting": "metabolite NADH", "value": 1.5825}, {"measurement": "Log2(fold change) NADP+", "setting": "metabolite NADP+", "value": 0.0717}, {"measurement": "Log2(fold change) NADPH", "setting": "metabolite NADPH", "value": 1.3580}, {"measurement": "Log2(fold change) O-acetyl-L-serine", "setting": "metabolite O-acetyl-L-serine", "value": 0.0000}, {"measurement": "Log2(fold change) Octoluse 8/1P", "setting": "metabolite Octoluse 8/1P", "value": 0.5111}, {"measurement": "Log2(fold change) Octoluse Bisphosphate", "setting": "metabolite Octoluse Bisphosphate", "value": -0.3203}, {"measurement": "Log2(fold change) PD", "setting": "metabolite PD", "value": -0.9637}, {"measurement": "Log2(fold change) PE", "setting": "metabolite PE", "value": 0.0520}, {"measurement": "Log2(fold change) PEE", "setting": "metabolite PEE", "value": 0.3860}, {"measurement": "Log2(fold change) PEEK", "setting": "metabolite PEEK", "value": 1.9585}, {"measurement": "Log2(fold change) PVNF", "setting": "metabolite PVNF", "value": 0.5887}, {"measurement": "Log2(fold change) Pyroglutamic acid", "setting": "metabolite Pyroglutamic acid", "value": -0.2368}, {"measurement": "Log2(fold change) Pyrophosphate", "setting": "metabolite Pyrophosphate", "value": 0.0000}, {"measurement": "Log2(fold change) Ribose-5-phosphate", "setting": "metabolite Ribose-5-phosphate", "value": -0.2008}, {"measurement": "Log2(fold change) S-adenosyl-L-homocysteine", "setting": "metabolite S-adenosyl-L-homocysteine", "value": 0.3352}, {"measurement": "Log2(fold change) S-adenosyl-L-methioninamine", "setting": "metabolite S-adenosyl-L-methioninamine", "value": 0.0000}, {"measurement": "Log2(fold change) S-adenosyl-L-methionine", "setting": "metabolite S-adenosyl-L-methionine", "value": 0.0000}, {"measurement": "Log2(fold change) S-methyl-5'-thioadenosine", "setting": "metabolite S-methyl-5'-thioadenosine", "value": 0.2721}, {"measurement": "Log2(fold change) SD", "setting": "metabolite SD", "value": -0.1612}, {"measurement": "Log2(fold change) SDL", "setting": "metabolite SDL", "value": 0.5371}, {"measurement": "Log2(fold change) SID", "setting": "metabolite SID", "value": 0.0000}, {"measurement": "Log2(fold change) Sedoheptulose bisphosphate", "setting": "metabolite Sedoheptulose bisphosphate", "value": 0.0035}, {"measurement": "Log2(fold change) Thiamine pyrophosphate", "setting": "metabolite Thiamine pyrophosphate", "value": -0.0731}, {"measurement": "Log2(fold changes) UDP-D-glucose", "setting": "metabolite UDP-D-glucose, log2 fold change", "value": 0.0091}, {"measurement": "Log2(fold changes) UDP-D-glucuronate", "setting": "metabolite UDP-D-glucuronate, log2 fold change", "value": -0.1151}, {"measurement": "Log2(fold changes) UDP-N-acetyl-glucosamine", "setting": "metabolite UDP-N-acetyl-glucosamine, log2 fold change", "value": -0.0367}, {"measurement": "Log2(fold changes) UDP", "setting": "metabolite UDP, log2 fold change", "value": -0.5308}, {"measurement": "Log2(fold changes) UMP", "setting": "metabolite UMP, log2 fold change", "value": 0.0364}, {"measurement": "Log2(fold changes) UTP", "setting": "metabolite UTP, log2 fold change", "value": -0.1207}, {"measurement": "Log2(fold changes) VD", "setting": "metabolite VD, log2 fold change", "value": 0.0000}, {"measurement": "Log2(fold changes) Xanthurenic acid", "setting": "metabolite Xanthurenic acid, log2 fold change", "value": 0.0000}, {"measurement": "Log2(fold changes) a-ketoglutarate", "setting": "metabolite a-ketoglutarate, log2 fold change", "value": -0.4532}, {"measurement": "Log2(fold changes) acetyl-CoA", "setting": "metabolite acetyl-CoA, log2 fold change", "value": -0.3299}, {"measurement": "Log2(fold changes) acetyl-aspartate", "setting": "metabolite acetyl-aspartate, log2 fold change", "value": -0.2105}, {"measurement": "Log2(fold changes) acetylphosphate", "setting": "metabolite acetylphosphate, log2 fold change", "value": 0.0000}, {"measurement": "Log2(fold changes) aconitate", "setting": "metabolite aconitate, log2 fold change", "value": -0.2855}, {"measurement": "Log2(fold changes) adenine", "setting": "metabolite adenine, log2 fold change", "value": 0.0812}, {"measurement": "Log2(fold changes) adenosine 5'-phosphosulfate", "setting": "metabolite adenosine 5'-phosphosulfate, log2 fold change", "value": 0.0000}]}]}
